Assay results reported in patent US20230278984A1 (Global Blood Therapeutics, Inc., priority 2020, published 2023).

Molecular target: T1, Human pyruvate kinase R (PKR) (Homo sapiens, UniProt P30613)
T1 construct: Human pyruvate kinase R (PKR), residues 14-574; 6x-His (N, cleaved yes); 8x-Arg (N, cleaved yes); SUMO (N, cleaved yes); host or cells: E. coli
Assay: Biochemical assay for activation of pyruvate kinase R (Kinase-Glo luminescence measurement of ATP generation)
Conditions: for AC50: PKR biochemical assay, 0.1 nM PKR, 0.3 mM ADP, 2 mM FBP, 0.1 mM PEP; for Emax: maximal activation level relative to the activation level achieved by the literature compound AG-348 @ 10 μM
Method: Human pyruvate kinase R (PKR), residues 14-574, and human pyruvate kinase M2, residues 1-531, were cloned into expression plasmids and obtained from ATUM Bio (Newark, Calif.). Proteins were translated as fusions with 6×-His, 8×-Arg, and SUMO at the N-terminus. A third construct of human PKR was truncated, residues 50-574, and similarly cloned for use in crystallography experiments. All proteins were cloned, expressed in E. coli, and purified using similar protocols. Cells were grown at 30° C. in Luria-Bertani broth supplemented with 0.4% glucose to OD600=0.8 and induced with 0.4 mM IPTG at 16° C. for 18 hours. Cells were harvested by centrifugation, resuspended in 50 mM potassium phosphate pH 8.0, 500 mM NaCl, 25 mM imidazole pH 8.0, and 3 mM (3-mercaptoethanol. Cells were lysed using a LM20 microfluidizer from Microfluidics (Westwood, Mass.). The crude lysate was immediately supplemented with 0.2 mM phenylmethylsulfonyl fluoride (PMSF) and centrifuged at 20,000 g for 20 minutes. The soluble fraction was subsequently incubated with 2 mL Ni-NTA (GE Healthcare) per 1,000 ODs for 1 hour at 4° C. Following incubation with the Ni-NTA resin, lysate was removed by pelleting resin at 2,500 g for 3 minutes and washed 3 times with 9 bed volumes of 50 mM potassium phosphate pH 8.0, 500 mM NaCl, 25 mM imidazole, and 3 mM 3-mercaptoethanol. Following the batch wash Ni-NTA resin was loaded onto a gravity column and His-tagged protein was eluted with 6 bed volumes of 10 mM Tris/HCl pH 8.0, 200 mM NaCl, 500 mM imidazole, and 3 mM (3-mercaptoethanol. Eluted protein was dialyzed overnight against 10 mM Tris/HCl pH 8.0, 200 mM NaCl, and 1 mM DTT and the 6×-His-8×-Arg-SUMO-tag was cleaved using a 20:1 molar ratio of protein:3C protease. The protein was purified by anion exchange chromatography on a HiTrapQ or MonoQ 10/100 GL column (GE Healthcare) via a linear NaCl gradient and twice by size exclusion chromatography using a Superdex S200 26/60 column (GE Healthcare) run in 10 mM Tris/HCl pH 8.0, 200 mM NaCl, 10 mM MgCl2, 1 mM DTT. Proteins were concentrated to −12 mg/mL for crystallization and flash frozen for storage.
Biochemical Assay for Activation of Pyruvate Kinase R
Activation of pyruvate kinase R (PKR) and pyruvate kinase M2 (PKM2) were measured using a luminescence based measurement of ATP generation and the Kinase-Glo luminescent kinase reagent kit.

T1 sequence (P30613 14-574): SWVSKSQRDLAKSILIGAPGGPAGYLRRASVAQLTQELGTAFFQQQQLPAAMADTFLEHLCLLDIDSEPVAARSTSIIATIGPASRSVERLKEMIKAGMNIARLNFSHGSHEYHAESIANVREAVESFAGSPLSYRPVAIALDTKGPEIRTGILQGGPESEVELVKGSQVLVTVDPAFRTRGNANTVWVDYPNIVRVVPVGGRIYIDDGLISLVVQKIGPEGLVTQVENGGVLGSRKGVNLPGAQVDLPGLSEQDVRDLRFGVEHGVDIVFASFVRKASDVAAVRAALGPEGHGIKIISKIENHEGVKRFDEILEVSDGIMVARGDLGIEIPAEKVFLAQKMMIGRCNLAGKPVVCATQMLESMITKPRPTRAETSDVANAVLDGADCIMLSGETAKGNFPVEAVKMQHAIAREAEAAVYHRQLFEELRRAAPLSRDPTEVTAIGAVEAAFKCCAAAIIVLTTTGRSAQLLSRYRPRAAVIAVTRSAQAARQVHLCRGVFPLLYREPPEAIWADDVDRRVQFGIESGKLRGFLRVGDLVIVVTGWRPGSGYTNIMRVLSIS

SMILES | AC50 [nM] | Emax [%]
O=C(NCc1nnnn1-c1ccc(Cl)c(Cl)c1)NCc1nnnn1-c1ccc(Cl)c(Cl)c1 [Compound 60, 1,3-bis({[1-(3,4-dichlorophenyl)-1H-1,2,3,4-tetrazol-5-yl]methyl})urea] | 180 | 82
Cc1nc(CNC(=O)NCc2ncnn2Cc2ccccc2)n(-c2ccc(Cl)c(F)c2)n1 [Compound 18, 1-[(1-benzyl-1H-1,2,4-triazol-5-yl)methyl]-3-{[1-(4-chloro-3-fluorophenyl)-3-methyl-1H-1,2,4-triazol-5-yl]methyl}urea] | 37 | 85
Cc1cc(-n2nnnc2CNC(=O)NCc2nnnn2-c2ccc(Cl)c(C)c2)ccc1Cl [Compound 59, 1,3-bis({[1-(4-chloro-3-methylphenyl)-1H-1,2,3,4-tetrazol-5-yl]methyl})urea] | 1200 | 86
O=C(NCC1=NC2(CC2)C(=O)N1Cc1ccc(F)cc1)NCc1ncnn1-c1ccc(Cl)c(F)c1 [Compound 109, 1-{[1-(4-chloro-3-fluorophenyl)-1H-1,2,4-triazol-5-yl]methyl}-3-({6-[(4-fluorophenyl)methyl]-7-oxo-4,6-diazaspiro[2.4]hept-4-en-5-yl}methyl)urea] | 110 | 96
O=C(NCC1=NC2(CC2)C(=O)N1Cc1ccc(F)cc1)NCc1ncnn1-c1ccc2cccnc2c1 [Compound 110, 3-({6-[(4-fluorophenyl)methyl]-7-oxo-4,6-diazaspiro[2.4]hept-4-en-5-yl}methyl)-1-{[1-(quinolin-7-yl)-1H-1,2,4-triazol-5-yl]methyl}urea] | 61 | 83

Other lines, results leading:

AC50 [nM] | Emax [%] | SMILES
120 | 46 | O=C(NCc1ncnn1-c1ccc(F)c(Cl)c1)NCc1ncnn1-c1ccc(F)c(Cl)c1 [Compound 64, 1,3-bis({[1-(3-chloro-4-fluorophenyl)-1H-1,2,4-triazol-5-yl]methyl})urea]
510 | 92 | COCCc1nc(CNC(=O)NCc2ncnn2-c2ccc3cccnc3c2)n(-c2ccc(Cl)c(F)c2)n1 [Compound 97, 1-{[1-(4-chloro-3-fluorophenyl)-3-(2-methoxyethyl)-1H-1,2,4-triazol-5-yl]methyl}-3-{[1-(quinolin-7-yl)-1H-1,2,4-triazol-5-yl]methyl}urea]
1200 | 29 | CN(Cc1ncnn1-c1ccc(Cl)c(F)c1)C(=O)N(C)Cc1ncnn1-c1ccc(Cl)c(F)c1 [Compound 28, 1,3-bis({[1-(4-chloro-3-fluorophenyl)-1H-1,2,4-triazol-5-yl]methyl})-1,3-dimethylurea]
170 | 110 | COc1cncc(-n2ncnc2CNC(=O)NCc2nc(C)nn2-c2ccc(Cl)c(F)c2)c1 [Compound 134, 1-{[1-(4-chloro-3-fluorophenyl)-3-methyl-1H-1,2,4-triazol-5-yl]methyl}-3-{[1-(5-methoxypyridin-3-yl)-1H-1,2,4-triazol-5-yl]methyl}urea]
420 | 47 | O=C(NCc1ncnn1-c1ccc(Cl)c(F)c1)NCc1ncnn1C1CCOCC1 [Compound 5, 3-{[1-(4-chloro-3-fluorophenyl)-1H-1,2,4-triazol-5-yl]methyl}-1-{[1-(oxan-4-yl)-1H-1,2,4-triazol-5-yl]methyl}urea]
3100 | 65 | O=C(NCc1ncnn1-c1cc(F)cc(Cl)c1)NCc1ncnn1-c1cc(F)cc(Cl)c1 [Compound 68, 1,3-bis({[1-(3-chloro-5-fluorophenyl)-1H-1,2,4-triazol-5-yl]methyl})urea]
540 | 74 | CC(C)c1nc(CNC(=O)NCc2ncnn2-c2ccc3cccnc3c2)n(-c2ccc(Cl)c(F)c2)n1 [Compound 42, 1-{[1-(4-chloro-3-fluorophenyl)-3-(propan-2-yl)-1H-1,2,4-triazol-5-yl]methyl}-3-{[1-(quinolin-7-yl)-1H-1,2,4-triazol-5-yl]methyl}urea]
